Tested on: H1 human embryonic stem cells
Test: Secondary assay: compound combined with individual growth factors or small molecules, no activin A (Example 5, Table 4);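 on Cell Number, Average Total Cell Number: Four-day assay with feeding on alternate days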;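 on Sox17 Expression, Average Total Intensity: Four-day assay with feeding on alternate days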
Format: cell-based
[1] = no AA (with Wnt3a), bicuculline
[2] = no AA (with Wnt3a), EGF + FGF4 + PDGF-A + Muscimol
[3] = no AA (with Wnt3a), EGF + FGF4 + PDGF-A + VEGF
[4] = no AA (with Wnt3a), EGF + FGF4 + PDGF-AB
[5] = no AA (with Wnt3a), EGF + FGF4 + PDGF-AB + Muscimol
[6] = no AA (with Wnt3a), EGF + PDGF-A + VEGF
[7] = no AA (with Wnt3a), FGF4 + PDGF-A + VEGF

CCN1CC(=O)NCCCc2cncc(c2)-c2ncnc(n2)Nc2cc(Cl)cc(c2)C1 [Compound 35, 10-Chloro-14-ethyl-3,5,7,14,17,23,27-heptaazatetracyclo[19.3.1.1˜2,6˜0.1˜8,12]Theptacosa-1(25), 2(27), 3,5,8(26), 9,11,21,23-nonaen-16-one]
Cell Number, % of positive control (no AA (with Wnt3a), BMP1): 210.81%
Cell Number, Average Total Cell Number (no AA (with Wnt3a), BMP1): 18849
Sox17 Expression, % of positive control (no AA (with Wnt3a), BMP1): 6.59%
Sox17 Expression, Average Total Intensity (no AA (with Wnt3a), BMP1): 1.29E+07
Cell Number, % of positive control (no AA (with Wnt3a), BMP2): 181.38%
Cell Number, Average Total Cell Number (no AA (with Wnt3a), BMP2): 16218
Sox17 Expression, % of positive control (no AA (with Wnt3a), BMP2): 4.55%
Sox17 Expression, Average Total Intensity (no AA (with Wnt3a), BMP2): 8.89E+06
Cell Number, % of positive control (no AA (with Wnt3a), BMP2/7): 134.67%
Cell Number, Average Total Cell Number (no AA (with Wnt3a), BMP2/7): 12042
Sox17 Expression, % of positive control (no AA (with Wnt3a), BMP2/7): 3.62%
Sox17 Expression, Average Total Intensity (no AA (with Wnt3a), BMP2/7): 7.08E+06
Cell Number, % of positive control (no AA (with Wnt3a), BMP4): 187.31%
Cell Number, Average Total Cell Number (no AA (with Wnt3a), BMP4): 16748
Sox17 Expression, % of positive control (no AA (with Wnt3a), BMP4): 4.59%
Sox17 Expression, Average Total Intensity (no AA (with Wnt3a), BMP4): 8.97E+06
Cell Number, % of positive control (no AA (with Wnt3a), BMP7): 224.91%
Cell Number, Average Total Cell Number (no AA (with Wnt3a), BMP7): 20111
Sox17 Expression, % of positive control (no AA (with Wnt3a), BMP7): 4.12%
Sox17 Expression, Average Total Intensity (no AA (with Wnt3a), BMP7): 8.05E+06
Cell Number, % of positive control (no AA (with Wnt3a), Butyrate): 159.24%
Cell Number, Average Total Cell Number (no AA (with Wnt3a), Butyrate): 14238
Sox17 Expression, % of positive control (no AA (with Wnt3a), Butyrate): −0.94%
Sox17 Expression, Average Total Intensity (no AA (with Wnt3a), Butyrate): −1.85E+06
Cell Number, % of positive control (no AA (with Wnt3a), EGF): 216.23%
Cell Number, Average Total Cell Number (no AA (with Wnt3a), EGF): 19334
Sox17 Expression, % of positive control (no AA (with Wnt3a), EGF): 33.86%
Sox17 Expression, Average Total Intensity (no AA (with Wnt3a), EGF): 6.62E+07
Cell Number, % of positive control (no AA (with Wnt3a), FGF4): 49.32%
Cell Number, Average Total Cell Number (no AA (with Wnt3a), FGF4): 4410
Sox17 Expression, % of positive control (no AA (with Wnt3a), FGF4): 17.04%
Sox17 Expression, Average Total Intensity (no AA (with Wnt3a), FGF4): 3.33E+07
Cell Number, % of positive control (no AA (with Wnt3a), LY294002): 205.49%
Cell Number, Average Total Cell Number (no AA (with Wnt3a), LY294002): 18374
Sox17 Expression, % of positive control (no AA (with Wnt3a), LY294002): 5.28%
Sox17 Expression, Average Total Intensity (no AA (with Wnt3a), LY294002): 1.03E+07
Cell Number, % of positive control (no AA (with Wnt3a), Muscimol): 211.00%
Cell Number, Average Total Cell Number (no AA (with Wnt3a), Muscimol): 18867
Sox17 Expression, % of positive control (no AA (with Wnt3a), Muscimol): 13.35%
Sox17 Expression, Average Total Intensity (no AA (with Wnt3a), Muscimol): 2.61E+07
Cell Number, % of positive control (no AA (with Wnt3a), PD98059): 211.11%
Cell Number, Average Total Cell Number (no AA (with Wnt3a), PD98059): 18877
Sox17 Expression, % of positive control (no AA (with Wnt3a), PD98059): 6.64%
Sox17 Expression, Average Total Intensity (no AA (with Wnt3a), PD98059): 1.30E+07
Cell Number, % of positive control (no AA (with Wnt3a), PDGF-A): 188.84%
Cell Number, Average Total Cell Number (no AA (with Wnt3a), PDGF-A): 16885
Sox17 Expression, % of positive control (no AA (with Wnt3a), PDGF-A): 22.94%
Sox17 Expression, Average Total Intensity (no AA (with Wnt3a), PDGF-A): 4.48E+07
Cell Number, % of positive control (no AA (with Wnt3a), PDGF-AB): 186.34%
Cell Number, Average Total Cell Number (no AA (with Wnt3a), PDGF-AB): 16662
Sox17 Expression, % of positive control (no AA (with Wnt3a), PDGF-AB): 25.33%
Sox17 Expression, Average Total Intensity (no AA (with Wnt3a), PDGF-AB): 4.95E+07
Cell Number, % of positive control (no AA (with Wnt3a), PDGF-B): 158.46%
Cell Number, Average Total Cell Number (no AA (with Wnt3a), PDGF-B): 14168
Sox17 Expression, % of positive control (no AA (with Wnt3a), PDGF-B): 7.76%
Sox17 Expression, Average Total Intensity (no AA (with Wnt3a), PDGF-B): 1.52E+07
Cell Number, % of positive control (no AA (with Wnt3a), PDGF-C): 186.12%
Cell Number, Average Total Cell Number (no AA (with Wnt3a), PDGF-C): 16642
Sox17 Expression, % of positive control (no AA (with Wnt3a), PDGF-C): 9.46%
Sox17 Expression, Average Total Intensity (no AA (with Wnt3a), PDGF-C): 1.85E+07
Cell Number, % of positive control (no AA (with Wnt3a), PDGF-D): 197.03%
Cell Number, Average Total Cell Number (no AA (with Wnt3a), PDGF-D): 17618
Sox17 Expression, % of positive control (no AA (with Wnt3a), PDGF-D): 9.41%
Sox17 Expression, Average Total Intensity (no AA (with Wnt3a), PDGF-D): 1.84E+07
Cell Number, % of positive control (no AA (with Wnt3a), U0124): 184.97%
Cell Number, Average Total Cell Number (no AA (with Wnt3a), U0124): 16539
Sox17 Expression, % of positive control (no AA (with Wnt3a), U0124): 3.86%
Sox17 Expression, Average Total Intensity (no AA (with Wnt3a), U0124): 7.54E+06
Cell Number, % of positive control (no AA (with Wnt3a), U0126): 223.24%
Cell Number, Average Total Cell Number (no AA (with Wnt3a), U0126): 19961
Sox17 Expression, % of positive control (no AA (with Wnt3a), U0126): −0.29%
Sox17 Expression, Average Total Intensity (no AA (with Wnt3a), U0126): −5.75E+05
Cell Number, % of positive control (no AA (with Wnt3a), VEGF): 204.25%
Cell Number, Average Total Cell Number (no AA (with Wnt3a), VEGF): 18263
Sox17 Expression, % of positive control (no AA (with Wnt3a), VEGF): 17.98%
Sox17 Expression, Average Total Intensity (no AA (with Wnt3a), VEGF): 3.51E+07
Cell Number, % of positive control [1]: 215.98%
Cell Number, Average Total Cell Number [1]: 19312
Sox17 Expression, % of positive control [1]: 1.00%
Sox17 Expression, Average Total Intensity [1]: 1.95E+06
Cell Number, % of positive control (no AA (with Wut3a), BMP6): 199.50%
Cell Number, Average Total Cell Number (no AA (with Wut3a), BMP6): 17838
Sox17 Expression, % of positive control (no AA (with Wut3a), BMP6): 3.75%
Sox17 Expression, Average Total Intensity (no AA (with Wut3a), BMP6): 7.32E+06

O=C1NCCCc2cncc(c2)-c2ncnc(n2)Nc2cccc(c2)CN2CCCC1C2 (centres unmarked) [Compound 17, 3,5,7,14,20,26,31-Heptaazapentacyclo[22.3.1.1-2,6˜1˜8,12˜1˜14,18˜]hentriaconta-1(28), 2(31), 3,5,8(30), 9,11,24,26-nonaen-19-one]
Cell Number, % of positive control (no AA (with Wnt3a), EGF): 73.43%
Cell Number, Average Total Cell Number (no AA (with Wnt3a), EGF): 6942
Sox17 Expression, % of positive control (no AA (with Wnt3a), EGF): 0.74%
Sox17 Expression, Average Total Intensity (no AA (with Wnt3a), EGF): 1.27E+06
Cell Number, % of positive control (no AA (with Wnt3a), EGF + FGF4): 60.69%
Cell Number, Average Total Cell Number (no AA (with Wnt3a), EGF + FGF4): 5738
Sox17 Expression, % of positive control (no AA (with Wnt3a), EGF + FGF4): 1.83%
Sox17 Expression, Average Total Intensity (no AA (with Wnt3a), EGF + FGF4): 3.14E+06
Cell Number, % of positive control [2]: 144.37%
Cell Number, Average Total Cell Number [2]: 13649
Sox17 Expression, % of positive control [2]: 8.43%
Sox17 Expression, Average Total Intensity [2]: 1.45E+07
Cell Number, % of positive control [3]: 110.85%
Cell Number, Average Total Cell Number [3]: 10480
Sox17 Expression, % of positive control [3]: 5.23%
Sox17 Expression, Average Total Intensity [3]: 8.97E+06
Cell Number, % of positive control [4]: 47.10%
Cell Number, Average Total Cell Number [4]: 4453
Sox17 Expression, % of positive control [4]: 0.54%
Sox17 Expression, Average Total Intensity [4]: 9.30E+05
Cell Number, % of positive control [5]: 109.91%
Cell Number, Average Total Cell Number [5]: 10391
Sox17 Expression, % of positive control [5]: 5.20%
Sox17 Expression, Average Total Intensity [5]: 8.92E+06
Cell Number, % of positive control [6]: 60.59%
Cell Number, Average Total Cell Number [6]: 5728
Sox17 Expression, % of positive control [6]: 1.24%
Sox17 Expression, Average Total Intensity [6]: 2.14E+06
Cell Number, % of positive control [7]: 139.59%
Cell Number, Average Total Cell Number [7]: 13198
Sox17 Expression, % of positive control [7]: 7.54%
Sox17 Expression, Average Total Intensity [7]: 1.29E+07

Reference: US9593305B2, “Differentiation of pluripotent stem cells” (Janssen Biotech, Inc., priority 2008, dated 2017)
